Measurements as given in publication PMC12090182, “Repurposing of the RIPK1-Selective Benzo[1,4]oxazepin-4-one Scaffold for the Development of a Type III LIMK1/2 Inhibitor” (ACS Chemical Biology, 2025).

Key:
Assay in all cases: biochemical
Assay type in all cases: binding
[1] = biological target: 468 kinases including some pathogenic mutants (Homo sapiens, UniProt P29323); details: EPHB2 (Entrez EPHB2), 100 nM; read-out: Percent Control
[2] = biological target: 468 kinases including some pathogenic mutants (Homo sapiens, UniProt Q8NG66); details: NEK11 (Entrez NEK11), 100 nM; read-out: Percent Control
[3] = biological target: 468 kinases including some pathogenic mutants (Homo sapiens, UniProt Q9BUB5); details: MKNK1 (Entrez MKNK1), 100 nM; read-out: Percent Control
[4] = biological target: 468 kinases including some pathogenic mutants (Homo sapiens, UniProt P52564); details: MEK6 (Entrez MAP2K6), 1000 nM; read-out: Percent Control
[5] = biological target: 468 kinases including some pathogenic mutants (Homo sapiens, UniProt P51451); details: BLK (Entrez BLK), 100 nM; read-out: Percent Control
[6] = biological target: 468 kinases including some pathogenic mutants (Homo sapiens, UniProt P07333); details: CSF1R-autoinhibited (Entrez CSF1R), 100 nM; read-out: Percent Control
[7] = biological target: 468 kinases including some pathogenic mutants (Homo sapiens, UniProt Q9P0L2); details: MARK1 (Entrez MARK1), 1000 nM; read-out: Percent Control
[8] = biological target: 468 kinases including some pathogenic mutants (Homo sapiens, UniProt P50750); details: CDK9 (Entrez CDK9), 100 nM; read-out: Percent Control
[9] = biological target: 468 kinases including some pathogenic mutants (Homo sapiens, UniProt P52333); details: JAK3(JH1domain-catalytic) (Entrez JAK3), 100 nM; read-out: Percent Control
[10] = biological target: 468 kinases including some pathogenic mutants (Homo sapiens, UniProt O94768); details: DRAK2 (Entrez STK17B), 100 nM; read-out: Percent Control
[11] = biological target: 468 kinases including some pathogenic mutants (Homo sapiens, UniProt P36888, N841I); details: read-out: Percent Control
[12] = biological target: 468 kinases including some pathogenic mutants (Homo sapiens, UniProt Q8TDR2); details: STK35 (Entrez STK35), 1000 nM; read-out: Percent Control
[13] = biological target: 468 kinases including some pathogenic mutants (Homo sapiens, UniProt Q13554); details: CAMK2B (Entrez CAMK2B), 100 nM; read-out: Percent Control
[14] = biological target: 468 kinases including some pathogenic mutants (Homo sapiens, UniProt Q14680); details: MELK (Entrez MELK), 1000 nM; read-out: Percent Control
[15] = biological target: 468 kinases including some pathogenic mutants (Homo sapiens, UniProt Q8TBX8); details: PIP5K2C (Entrez PIP4K2C), 100 nM; read-out: Percent Control
[16] = biological target: 468 kinases including some pathogenic mutants (Homo sapiens, UniProt Q99755); details: PIP5K1A (Entrez PIP5K1A), 100 nM; read-out: Percent Control
[17] = biological target: 468 kinases including some pathogenic mutants (Homo sapiens, UniProt P09619); details: PDGFRB (Entrez PDGFRB), 100 nM; read-out: Percent Control
[18] = biological target: 468 kinases including some pathogenic mutants (Homo sapiens, UniProt P42336, I800L); details: read-out: Percent Control
[19] = biological target: 468 kinases including some pathogenic mutants (Homo sapiens, UniProt Q13043); details: MST1 (Entrez STK4), 100 nM; read-out: Percent Control
[20] = biological target: 468 kinases including some pathogenic mutants (Homo sapiens, UniProt Q9BVS4); details: RIOK2 (Entrez RIOK2), 1000 nM; read-out: Percent Control
[21] = biological target: 468 kinases including some pathogenic mutants (Homo sapiens, UniProt Q9NYL2); details: ZAK (Entrez ZAK), 1000 nM; read-out: Percent Control
[22] = biological target: 468 kinases including some pathogenic mutants (Homo sapiens, UniProt O75716); details: STK16 (Entrez STK16), 1000 nM; read-out: Percent Control
[23] = biological target: 468 kinases including some pathogenic mutants (Homo sapiens, UniProt Q2M2I8); details: AAK1 (Entrez AAK1), 100 nM; read-out: Percent Control
[24] = biological target: 468 kinases including some pathogenic mutants (Homo sapiens, UniProt Q13164); details: ERK5 (Entrez MAPK7), 100 nM; read-out: Percent Control
[25] = biological target: 468 kinases including some pathogenic mutants (Homo sapiens, UniProt P78362); details: SRPK2 (Entrez SRPK2), 1000 nM; read-out: Percent Control
[26] = biological target: 468 kinases including some pathogenic mutants (Homo sapiens, UniProt Q9UIK4); details: DAPK2 (Entrez DAPK2), 100 nM; read-out: Percent Control
[27] = biological target: 468 kinases including some pathogenic mutants (Homo sapiens, UniProt P19784); details: CSNK2A2 (Entrez CSNK2A2), 100 nM; read-out: Percent Control
[28] = biological target: 468 kinases including some pathogenic mutants (Homo sapiens, UniProt Q15746); details: MYLK (Entrez MYLK), 100 nM; read-out: Percent Control
Chain of 468 kinases including some pathogenic mutants (Homo sapiens, UniProt Q15746) (Q15746 whole entry, change not shown): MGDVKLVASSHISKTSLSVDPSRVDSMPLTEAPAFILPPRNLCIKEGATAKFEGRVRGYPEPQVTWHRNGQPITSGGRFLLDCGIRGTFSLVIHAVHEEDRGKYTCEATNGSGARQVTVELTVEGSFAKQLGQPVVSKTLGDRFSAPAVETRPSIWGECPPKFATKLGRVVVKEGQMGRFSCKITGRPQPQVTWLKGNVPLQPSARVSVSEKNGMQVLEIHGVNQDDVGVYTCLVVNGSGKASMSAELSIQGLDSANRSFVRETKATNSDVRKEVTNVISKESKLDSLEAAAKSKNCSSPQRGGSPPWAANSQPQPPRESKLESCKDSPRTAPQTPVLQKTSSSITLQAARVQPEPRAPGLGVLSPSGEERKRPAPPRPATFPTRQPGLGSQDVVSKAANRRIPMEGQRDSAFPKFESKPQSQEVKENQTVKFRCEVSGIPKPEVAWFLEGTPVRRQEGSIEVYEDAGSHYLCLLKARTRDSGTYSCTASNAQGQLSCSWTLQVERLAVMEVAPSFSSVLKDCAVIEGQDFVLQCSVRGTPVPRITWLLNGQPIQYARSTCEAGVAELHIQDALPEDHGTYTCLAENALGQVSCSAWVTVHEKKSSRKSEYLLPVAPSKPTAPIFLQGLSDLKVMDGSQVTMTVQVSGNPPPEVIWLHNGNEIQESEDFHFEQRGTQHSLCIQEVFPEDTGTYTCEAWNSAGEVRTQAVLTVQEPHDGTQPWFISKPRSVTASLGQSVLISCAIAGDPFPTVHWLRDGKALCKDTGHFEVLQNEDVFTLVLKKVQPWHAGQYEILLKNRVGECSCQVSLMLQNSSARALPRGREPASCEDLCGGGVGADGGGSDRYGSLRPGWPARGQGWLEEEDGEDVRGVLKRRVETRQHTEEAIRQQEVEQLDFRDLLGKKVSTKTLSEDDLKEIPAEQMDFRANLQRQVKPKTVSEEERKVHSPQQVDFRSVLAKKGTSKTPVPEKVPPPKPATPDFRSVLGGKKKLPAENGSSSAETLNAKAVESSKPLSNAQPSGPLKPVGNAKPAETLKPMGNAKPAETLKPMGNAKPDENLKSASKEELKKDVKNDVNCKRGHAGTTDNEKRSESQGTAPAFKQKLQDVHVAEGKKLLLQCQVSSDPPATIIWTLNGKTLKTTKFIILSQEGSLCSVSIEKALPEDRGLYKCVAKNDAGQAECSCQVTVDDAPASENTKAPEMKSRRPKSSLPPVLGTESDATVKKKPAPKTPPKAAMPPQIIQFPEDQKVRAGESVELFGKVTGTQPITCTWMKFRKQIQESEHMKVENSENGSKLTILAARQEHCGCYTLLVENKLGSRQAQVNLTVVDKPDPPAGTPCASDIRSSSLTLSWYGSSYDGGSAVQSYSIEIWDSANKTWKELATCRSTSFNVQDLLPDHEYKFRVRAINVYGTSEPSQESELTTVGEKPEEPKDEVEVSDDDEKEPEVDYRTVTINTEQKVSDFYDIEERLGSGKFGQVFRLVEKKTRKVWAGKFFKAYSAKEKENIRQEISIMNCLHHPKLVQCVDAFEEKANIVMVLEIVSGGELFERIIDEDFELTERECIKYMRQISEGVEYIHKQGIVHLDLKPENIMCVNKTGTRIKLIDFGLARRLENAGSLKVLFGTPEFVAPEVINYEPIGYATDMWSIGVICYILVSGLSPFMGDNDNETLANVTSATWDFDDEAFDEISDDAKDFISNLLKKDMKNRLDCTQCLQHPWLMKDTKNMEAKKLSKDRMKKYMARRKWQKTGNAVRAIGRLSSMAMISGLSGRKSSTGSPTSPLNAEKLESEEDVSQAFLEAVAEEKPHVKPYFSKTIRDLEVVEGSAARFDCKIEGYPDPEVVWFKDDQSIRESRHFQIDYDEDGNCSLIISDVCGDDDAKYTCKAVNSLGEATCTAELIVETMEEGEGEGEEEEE

Chain of 468 kinases including some pathogenic mutants (Homo sapiens, UniProt P42336, I800L) (P42336 whole entry I800L): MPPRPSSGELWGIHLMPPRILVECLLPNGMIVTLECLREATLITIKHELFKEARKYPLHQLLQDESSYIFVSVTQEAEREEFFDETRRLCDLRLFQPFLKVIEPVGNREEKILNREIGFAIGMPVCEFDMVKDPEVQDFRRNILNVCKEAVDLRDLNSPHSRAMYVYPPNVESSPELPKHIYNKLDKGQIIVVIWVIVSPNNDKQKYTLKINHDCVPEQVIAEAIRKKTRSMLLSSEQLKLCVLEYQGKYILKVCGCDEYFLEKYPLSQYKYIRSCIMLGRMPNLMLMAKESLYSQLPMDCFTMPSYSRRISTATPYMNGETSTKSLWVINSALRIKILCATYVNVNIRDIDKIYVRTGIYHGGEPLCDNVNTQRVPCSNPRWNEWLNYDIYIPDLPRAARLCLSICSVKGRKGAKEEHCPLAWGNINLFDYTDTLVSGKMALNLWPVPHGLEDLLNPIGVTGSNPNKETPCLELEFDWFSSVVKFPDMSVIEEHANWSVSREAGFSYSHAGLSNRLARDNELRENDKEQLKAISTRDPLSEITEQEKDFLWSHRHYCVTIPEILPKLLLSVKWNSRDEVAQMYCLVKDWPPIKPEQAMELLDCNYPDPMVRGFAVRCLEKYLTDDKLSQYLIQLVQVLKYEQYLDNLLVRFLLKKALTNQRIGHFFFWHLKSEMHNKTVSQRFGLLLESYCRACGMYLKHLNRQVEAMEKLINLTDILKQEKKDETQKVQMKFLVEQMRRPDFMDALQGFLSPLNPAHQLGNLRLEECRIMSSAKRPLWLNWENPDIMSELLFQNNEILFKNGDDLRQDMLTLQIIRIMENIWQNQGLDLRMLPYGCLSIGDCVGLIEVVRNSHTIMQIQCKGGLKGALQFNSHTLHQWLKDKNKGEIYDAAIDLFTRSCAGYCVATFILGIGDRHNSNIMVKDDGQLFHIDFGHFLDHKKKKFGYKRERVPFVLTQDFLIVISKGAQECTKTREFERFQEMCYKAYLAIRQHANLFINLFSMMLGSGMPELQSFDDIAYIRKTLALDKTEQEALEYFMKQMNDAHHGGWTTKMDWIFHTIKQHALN
Chain of 468 kinases including some pathogenic mutants (Homo sapiens, UniProt P50750) (P50750 whole entry, change not shown): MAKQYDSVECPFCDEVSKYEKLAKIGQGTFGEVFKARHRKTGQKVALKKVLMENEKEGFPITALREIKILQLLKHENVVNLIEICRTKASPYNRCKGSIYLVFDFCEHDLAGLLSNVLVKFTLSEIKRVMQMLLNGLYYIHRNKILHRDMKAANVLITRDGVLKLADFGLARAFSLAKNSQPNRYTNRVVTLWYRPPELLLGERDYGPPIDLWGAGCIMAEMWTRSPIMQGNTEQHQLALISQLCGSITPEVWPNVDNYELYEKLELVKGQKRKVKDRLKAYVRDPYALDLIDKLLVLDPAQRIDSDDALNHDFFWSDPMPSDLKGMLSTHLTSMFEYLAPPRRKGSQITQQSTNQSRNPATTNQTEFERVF
Chain of 468 kinases including some pathogenic mutants (Homo sapiens, UniProt P19784) (P19784 whole entry, change not shown): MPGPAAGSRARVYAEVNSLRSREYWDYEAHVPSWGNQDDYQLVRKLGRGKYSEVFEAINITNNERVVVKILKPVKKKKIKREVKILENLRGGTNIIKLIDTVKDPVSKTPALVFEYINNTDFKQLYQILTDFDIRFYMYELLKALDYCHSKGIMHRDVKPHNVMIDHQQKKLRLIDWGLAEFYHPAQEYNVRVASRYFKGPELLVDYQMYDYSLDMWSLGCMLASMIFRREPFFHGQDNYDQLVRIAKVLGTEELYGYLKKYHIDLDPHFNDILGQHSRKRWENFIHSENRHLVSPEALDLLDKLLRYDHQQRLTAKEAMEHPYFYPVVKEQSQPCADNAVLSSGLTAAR
Chain of 468 kinases including some pathogenic mutants (Homo sapiens, UniProt Q99755) (Q99755 whole entry, change not shown): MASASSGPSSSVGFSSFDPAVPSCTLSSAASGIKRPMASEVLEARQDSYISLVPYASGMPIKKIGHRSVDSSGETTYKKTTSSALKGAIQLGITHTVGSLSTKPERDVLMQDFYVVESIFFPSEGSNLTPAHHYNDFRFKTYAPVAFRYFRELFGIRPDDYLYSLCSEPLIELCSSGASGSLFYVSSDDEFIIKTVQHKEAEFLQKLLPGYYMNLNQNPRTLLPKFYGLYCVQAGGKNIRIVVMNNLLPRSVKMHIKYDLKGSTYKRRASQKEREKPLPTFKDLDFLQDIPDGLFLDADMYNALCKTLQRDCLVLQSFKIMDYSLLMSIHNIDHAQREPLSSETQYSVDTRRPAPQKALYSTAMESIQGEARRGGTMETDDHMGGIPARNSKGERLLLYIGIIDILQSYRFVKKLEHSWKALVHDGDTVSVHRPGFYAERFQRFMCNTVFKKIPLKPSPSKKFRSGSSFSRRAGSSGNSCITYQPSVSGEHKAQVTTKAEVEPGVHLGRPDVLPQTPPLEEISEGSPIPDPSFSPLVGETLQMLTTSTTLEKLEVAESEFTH
Chain of 468 kinases including some pathogenic mutants (Homo sapiens, UniProt P51451) (P51451 whole entry, change not shown): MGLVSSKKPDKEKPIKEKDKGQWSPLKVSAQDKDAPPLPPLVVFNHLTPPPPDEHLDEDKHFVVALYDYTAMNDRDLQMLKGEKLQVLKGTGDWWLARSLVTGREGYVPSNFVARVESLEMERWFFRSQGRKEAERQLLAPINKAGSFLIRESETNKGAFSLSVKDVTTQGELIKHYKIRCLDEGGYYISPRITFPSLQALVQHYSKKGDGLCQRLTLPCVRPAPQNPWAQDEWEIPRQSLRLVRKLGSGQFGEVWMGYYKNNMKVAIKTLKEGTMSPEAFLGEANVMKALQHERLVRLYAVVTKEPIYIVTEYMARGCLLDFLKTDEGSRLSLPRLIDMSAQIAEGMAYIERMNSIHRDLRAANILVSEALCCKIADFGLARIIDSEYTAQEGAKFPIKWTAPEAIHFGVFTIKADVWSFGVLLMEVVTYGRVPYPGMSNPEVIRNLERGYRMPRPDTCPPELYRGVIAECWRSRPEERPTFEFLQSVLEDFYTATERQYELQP
Chain of 468 kinases including some pathogenic mutants (Homo sapiens, UniProt O75716) (O75716 whole entry, change not shown): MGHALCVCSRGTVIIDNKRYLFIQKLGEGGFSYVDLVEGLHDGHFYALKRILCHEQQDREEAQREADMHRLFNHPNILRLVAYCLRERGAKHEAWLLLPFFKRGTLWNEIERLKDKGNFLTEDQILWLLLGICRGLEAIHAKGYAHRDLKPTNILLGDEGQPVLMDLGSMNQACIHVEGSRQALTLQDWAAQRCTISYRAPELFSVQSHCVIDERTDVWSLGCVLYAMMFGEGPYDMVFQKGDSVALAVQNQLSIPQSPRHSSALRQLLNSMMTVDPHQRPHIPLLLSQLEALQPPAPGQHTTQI

CN1C(=O)[C@@H](N2CCc3c(nn(Cc4ccccc4)c3C(N)=O)C2=O)COc2cc(Cl)ccc21 [Compound 10, (S)-2-benzyl-6-(8-chloro-5-methyl-4-oxo-2,3,4,5-tetrahydrobenzo[b][1,4]oxazepin-3-yl)-7-oxo-4,5,6,7-tetrahydro-2H-pyrazolo[3,4-c]pyridine-3-carboxamide] gave a remaining activity at 0.1 µM [1] of 98%, a remaining activity at 0.1 µM [2] of 76% and a remaining activity at 0.1 µM [3] of 85%. It also gave a remaining activity at 1 µM [4] of 100%, a remaining activity at 0.1 µM [5] of 84% and a remaining activity at 0.1 µM [6] of 80%. It also gave a remaining activity at 1 µM [7] of 100%, a remaining activity at 0.1 µM [8] of 92% and a remaining activity at 0.1 µM [9] of 100%. For the same compound, the remaining activity at 0.1 µM [10] was 84%, the remaining activity at 0.1 µM [11] was 72% and the remaining activity at 1 µM [12] was 100%. The remaining activity at 0.1 µM [13] was 67%, the remaining activity at 1 µM [14] was 100% and the remaining activity at 0.1 µM [15] was 91%. It also gave a remaining activity at 0.1 µM [16] of 100%, a remaining activity at 0.1 µM [17] of 69% and a remaining activity at 0.1 µM [18] of 71%. The remaining activity at 0.1 µM [19] was 58%, the remaining activity at 1 µM [20] was 100% and the remaining activity at 1 µM [21] was 100%. It also gave a remaining activity at 1 µM [22] of 100%, a remaining activity at 0.1 µM [23] of 72% and a remaining activity at 0.1 µM [24] of 85%. For the same compound, the remaining activity at 1 µM [25] was 100%, the remaining activity at 0.1 µM [26] was 70% and the remaining activity at 0.1 µM [27] was 74%. It also gave a remaining activity at 0.1 µM [28] of 89%.
